These are literature values, as cited in patent US20100112102A1, “THERAPEUTIC COMPOSITIONS FOR THE TREATMENT OF BENIGH PROSTATE HYPERPLASIA, PROSTATITIS, IMPOTENCE, INFERTILITY AND PROSTATE CANCER AND A METHOD FOR THE USE THEREOF” (priority 2007, published 2010).

The test system of the data set is 5α-reductase. The following applies: one group of patients.

As to `CC(C)(C)NC(=O)[C@H]1CC[C@H]2[C@@H]3CC[C@H]4NC(=O)C=C[C@]4(C)[C@H]3CC[C@]12C` [Finasteride], the “J-PSS parameters, decrease on average” value was 20%; the “maximal rate of urination, increase” value is on record as 32.5%; the “prostate size, decrease on average” value is given as 32%.
